Earlier results as cited in patent US6344433B1, “Long-acting disinfectant and its preparation method” (priority 1999, dated 2002).

Conditions: crystal powder

Structure (SMILES): Oc1cc(Cl)ccc1Oc1ccc(Cl)cc1Cl [HD244, 2,4,4′-trichloro-2′-hydroxy diphenyl ether]
- solubility in water: hardly soluble in water
